From US10947252B2, “Inhibitors of KEAP1-Nrf2 protein-protein interaction” (Janssen Pharmaceutica NV, priority 2018, dated 2021)

How the values were obtained:
[1] = target: Kelch domain of human KEAP1 (321-624 aa) (Homo sapiens (Human), UniProt Q14145); test: KEAP1 KELCH ThermoFluor binding assay; details: KEAP Kelch […], 1,8-ANS, pH 7.0, average of results obtained, read-out: Tf Kd;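 also: Ligand-induced melting temperature shift of E. coli-expressed KEAP1 Kelch protein, Kd estimated from concentration-response curves of ΔTm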
[2] = system: Glo-Response ARE-luc2P HEK293 cell line; test: ARE luciferase reporter cell-based assay; details: Homo sapiens, HEK293, 24 h, average of results obtained;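 also: luciferase signal tracks Nrf2 activation of the ARE once compounds disrupt KEAP1-Nrf2 binding, read with One-Glo reagent, DMSO serving as low control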

Kelch domain of human KEAP1 (321-624 aa), sequence (Q14145 321-624): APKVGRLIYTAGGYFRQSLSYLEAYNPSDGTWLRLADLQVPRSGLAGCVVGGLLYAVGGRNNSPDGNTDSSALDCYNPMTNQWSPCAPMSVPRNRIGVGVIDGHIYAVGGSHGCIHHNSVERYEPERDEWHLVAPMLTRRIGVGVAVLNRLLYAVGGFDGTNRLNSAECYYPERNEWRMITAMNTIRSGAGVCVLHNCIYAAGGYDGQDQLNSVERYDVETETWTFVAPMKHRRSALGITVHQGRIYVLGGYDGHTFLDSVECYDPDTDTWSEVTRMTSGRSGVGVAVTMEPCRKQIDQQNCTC

`Cc1ccc([C@@H](CC(=O)O)c2ccn3c(C(F)F)nnc3c2C)cc1CN1C[C@]2(C)CCCN2c2ncccc2S1(=O)=O` (single isomer, unassigned) [Example 477, (*R)-3-(3-(Difluoromethyl)-8-methyl-[1,2,4]triazolo[4,3-a]pyridin-7-yl)-3-(4-methyl-3-(((*S)-7a-methyl-5,5-dioxido-7a,8,9,10-tetrahydropyrido[2,3-f]pyrrolo[2,1-d][1,2,5]thiadiazepin-6(7H)-yl)methyl)phenyl)propanoic Acid] showed a Kd [1] of 2.61 nM and an EC50 [2] of 1680 nM.

Compound `Cc1ccc(C(CC(=O)O)c2ccc3c(nnn3C3CC3)c2C)cc1CN1C[C@@H]2COCCN2c2ncccc2S1(=O)=O` (stereo in doubt) [Example 23, 3-(1-Cyclopropyl-4-methyl-1H-benzo[d][1,2,3]triazol-5-yl)-3-(3-(((*R)-5,5-dioxido-7a,8,10,11-tetrahydro-[1,4]oxazino[3,4-d]pyrido[2,3-f][1,2,5]thiadiazepin-6(7H)-yl)methyl)-4-methylphenyl)propanoic Acid] has a Kd [1] of 0.278 nM and an EC50 [2] of 8.3 nM.

In the case of `Cc1cnc2c(c1)S(=O)(=O)N(Cc1cc([C@@H](CC(=O)O)c3ccn4c(C(F)F)nnc4c3C)ccc1C)CC1(CC1)O2` (single isomer, unassigned) [Example 537, (*R)-3-(3-(Difluoromethyl)-8-methyl-[1,2,4]triazolo[4,3-a]pyridin-7-yl)-3-(4-methyl-3-((8′-methyl-1′,1′-dioxidospiro[cyclopropane-1,4′-pyrido[2,3-b][1,4,5]oxathiazepin]-2′(3′H)-yl)methyl)phenyl)propanoic Acid], the Kd [1] is reported as under 1 nM and the EC50 [2] is reported as 464 nM.

`Cc1ccc([C@@H](c2ccn3c(C(F)(F)F)nnc3c2C)C(C)(C)C(=O)O)cc1CN1CC2(CCOCC2)Oc2nc(OCCO)ccc2S1(=O)=O` (single isomer, unassigned) [Example 606, (*S)-3-(3-((7′-(2-Hydroxyethoxy)-1′,1′-dioxido-2,3,5,6-tetrahydrospiro[pyran-4,4′-pyrido[2,3-b][1,4,5]oxathiazepin]-2′(3′H)-yl)methyl)-4-methylphenyl)-2,2-dimethyl-3-(8-methyl-3-(trifluoromethyl)-[1,2,4]triazolo[4,3-a]pyridine-7-yl)propanoic Acid] gave a Kd [1] of 1730 nM and an EC50 [2] of over 20000 nM.

With `Cc1c([C@@H](CC(=O)O)c2ccc(Cl)c(CN3CC4CCCCN4c4ncccc4S3(=O)=O)c2)ccn2c(C(F)(F)F)nnc12` (single isomer, unassigned) [Example 84, (*S)-3-(4-Chloro-3-(((*S)-5,5-dioxido-7,7a,8,9,10,11-hexahydro-6H-dipyrido[2,1-d:2′,3′-][1,2,5]thiadiazepin-6-yl)methyl)phenyl)-3-(8-methyl-3-(trifluoromethyl)-[1,2,4]triazolo[4,3-a]pyridine-7-yl)propanoic Acid] the Kd [1] was under 1 nM and the EC50 [2] was 80.5 nM.

`Cc1ccc([C@@H](CC(=O)O)c2ccn3c(C(F)F)nnc3c2C)cc1CN1C[C@@H]2CCCN2c2ncc(C#N)cc2S1(=O)=O` (single isomer, unassigned) [Example 544, (*R)-3-(3-(((S)-3-Cyano-5,5-dioxido-7a,8,9,10-tetrahydropyrido[2,3-f]pyrrolo[2,1-d][1,2,5]thiadiazepin-6(7H)-yl)methyl)-4-methylphenyl)-3-(3-(difluoromethyl)-8-methyl-[1,2,4]triazolo[4,3-a]pyridin-7-yl)propanoic Acid] gave a Kd [1] of under 1 nM and an EC50 [2] of 278 nM.

For `Cc1ncc([C@@H](c2ccn3c(C(F)(F)F)nnc3c2C)C(C)(C)C(=O)O)cc1CN1CC2(CCOCC2)Oc2ncccc2S1(=O)=O` (single isomer, unassigned) [Example 571, (*R)-3-(5-((1′,1′-dioxido-2,3,5,6-tetrahydrospiro[pyran-4,4′-pyrido[2,3-b][1,4,5]oxathiazepin]-2′(3′H)-yl)methyl)-6-methylpyridin-3-yl)-2,2-dimethyl-3-(8-methyl-3-(trifluoromethyl)-[1,2,4]triazolo[4,3-a]pyridin-7-yl)propanoic Acid], the Kd [1] was 5850 nM and the EC50 [2] was over 20000 nM.
